# Test system: patients >2 and <25 years with brain cancer
# Test: Phase I/II trial of single agent mirdametinib in children, adolescents and young adults with brain cancer
# Type: in vivo, human
# Procedure: Example 1: Phase I/II Evaluation of Single Agent Mirdametinib, a Brain-Penetrant MEK1/2 Inhibitor, for the Treatment of Children, Adolescents, and Young Adults with Brain Cancer A multi-arm phase I/II trial of mirdametinib is to be conducted in patients>2 and <25 years with brain cancer. Phase I requires participants have no prior exposure to MEK inhibitors and recurrent/progressive disease with biopsy-proven evidence of MAPK pathway activation. Three escalating dose levels (2 mg/m^2/dose BID, 2.5 mg/m^2/dose BID and 3 mg/m^2/dose BID) are planned using a rolling 6 design. The median age enrolled in the study is 10 years old (3-21).
compound,measurement,setting,value
"O=C(NOC[C@H](O)CO)c1ccc(F)c(F)c1Nc1ccc(I)cc1F (single isomer, unassigned) [mirdametinib]",dose-limiting toxicities,"all three dose levels (2, 2.5 and 3 mg/m^2/dose BID), rolling 6 design, patients with brain cancer, median age 10 years",No dose-limiting toxicities
same,clinical activity (overall assessment),dosed continuously in patients with brain cancer,clinically promising
